# Data taken from patent US20250241913A1, “COMBINATION THERAPIES BASED ON PD-1 INHIBITORS AND SIK3 INHIBITORS” (iOmx Therapeutics AG, priority 2022, published 2025).
# Key:
# [1] = tested on: KLN205 tumor cells; assay: KLN205 lung squamous cell carcinoma model, subcutaneous, tumor growth; format: in vivo, DBA/2 mice; conditions: compared to control, E9 25 mg/kg twice daily oral, anti-murine-PD-1 mAb 10 mg/kg twice weekly i.p.
# Description: FIG. 4: (A) Average tumor growth kinetics and overall survival monitored for the EMT6 tumor model after treatment start. […] Treatment regimes are indicated by indeces 1 to 4 in the figure and represent: (1) 10 ml/kg vehicle+10 mg/kg mIgG1e ctrl. (2) 10 ml/kg vehicle+10 mg/kg α-mu-PD-1 (3) 12.5 mg/kg compound E9+10 mg/kg mIgG1e ctrl. and (4) 12.5 mg/kg compound E9+10 mg/kg α-mu-PD-1 (B) Average tumor growth kinetics for the KLN205 tumor model upon initiation of therapy; Treatment regimes are indicated by indeces 1 to 4 in the figure and represent: (1) 10 ml/kg vehicle+10 mg/kg mIgG1e ctrl. (2) 10 ml/kg vehicle+10 mg/kg α-mu-PD-1 (3) 25 mg/kg compound E9+10 mg/kg mIgG1e ctrl. And (4) 25 mg/kg compound E9+10 mg/kg α-mu-PD-1.
# EMT6 tumor cells were implanted into mammary fat pad in BALB/c mice and randomized at an average tumor volume of 65mm^3. KLN205 tumor cells were subcutaneously implanted in DBA/2 mice and randomized at an average tumor volume of 60 mm^3. Both animal models were treated twice daily by oral gavage with the indicated doses of compound E9 and twice weekly, intraperitoneal with 10 mg/kg anti-murine-PD-1 mAb (clone: RMP1-14) or corresponding controls.
# [2] = tested on: MC38 tumor cells; assay: MC38 tumor model, subcutaneous, tumor growth, survival and flow cytometry of tumor infiltrating cells; format: in vivo, C57BI6/N mice
# Description: FIG. 3: (A) Average tumor growth kinetics and overall survival monitored for the MC38 tumor model after treatment start. Treatment regimes are indicated by indeces 1 to 4 in the figure and represent: (1) 10 ml/kg vehicle+10 mg/kg mIgG1e ctrl. (2) 10 ml/kg vehicle+10 mg/kg α-muPD-1 (3) 25 mg/kg compound E9+10 mg/kg mIgG1e ctrl. and (4) 25 mg/kg compound E9+10 mg/kg α-mu-PD-1 (B) Tumor infiltrating cytotoxic T cells (CTL), CTL to regulatory T cell ratio, tumor associated M2-macrohages (M2-TAM) and M2-like TAM were analyzed by flow cytometry.
# MC38 tumor cells were subcutaneously implanted in C57BI6/N mice, randomized at an average tumor volume of 100 mm^3 and tumor bearing mice were treated twice daily with 25 mg/kg compound E9 by oral gavage and twice weekly, intraperitoneal with 10 mg/kg anti-murine-PD-1 mAb (clone: RMP1-14) or corresponding controls.
# [3] = monotherapy, 25 mg/kg E9 twice daily by oral gavage
smiles,measurement,setting,value
"Cc1nc(Nc2ncc(C(=O)Nc3c(CF)csc3Cl)s2)cc(N2CCN(C)CC2)n1 [E9, N-(2-chloro-4-(fluoromethyl)thiophen-3-yl)-2-((2-methyl-6-(4-methylpiperazin-1-yl)pyrimidin-4-yl)amino)thiazole-5-carboxamide]",Growth inhibition (TGI),[1],22%
same,CTL to Treg ratio,[2]; flow cytometry,promotion
same,cytotoxic T lymphocyte (CTL) activity,[2]; flow cytometry,activating
same,immunosuppressive myeloid cells in tumour microenvironment,[2]; flow cytometry,reducing
same,regulatory T cells (Treg) in tumour microenvironment,[2]; flow cytometry,reducing
same,anti-tumor efficacy,[2]; [3],highly significant anti-tumor efficacy
same,survival,[2]; [3],prolonged survival
